Data published in the NIST ThermoML archive (doi:10.1021/je700428f).
± gives the expanded uncertainty stated by the source.

Assay: xn = mol fraction of the nth substance listed
Details: 101 kPa, Liquid; for viscosity: Capillary tube (Ostwald / Ubbelohde) method

COC(C)(C)C [2-methoxy-2-methylpropane] + CCCCCCCCCC
Details	mass density [kg/m3]	viscosity [mPa·s]
273.15 K, x1 = 0.1016	–	1.2 ± 0.011
273.15 K, x1 = 0.1019	745.52 ± 0.54	–
273.15 K, x1 = 0.2002	–	1.093 ± 0.011
273.15 K, x1 = 0.2041	746.17 ± 0.53	–
273.15 K, x1 = 0.3003	–	1.004 ± 0.011
273.15 K, x1 = 0.3077	747.06 ± 0.53	–
273.15 K, x1 = 0.3999	748 ± 0.53	–
273.15 K, x1 = 0.4013	–	0.909 ± 0.01
273.15 K, x1 = 0.4992	–	0.822 ± 0.01
273.15 K, x1 = 0.5005	749.23 ± 0.52	–
273.15 K, x1 = 0.6005	–	0.741 ± 0.01
273.15 K, x1 = 0.6066	750.84 ± 0.52	–
273.15 K, x1 = 0.6866	752.32 ± 0.52	–
273.15 K, x1 = 0.7	–	0.659 ± 0.009
273.15 K, x1 = 0.7973	754.83 ± 0.52	–
273.15 K, x1 = 0.8005	–	0.584 ± 0.009
273.15 K, x1 = 0.8996	–	0.513 ± 0.009
273.15 K, x1 = 0.8999	757.82 ± 0.52	–
273.15 K, x1 = 1	761.34 ± 0.5	–
278.15 K, x1 = 0.1016	–	1.092 ± 0.011
278.15 K, x1 = 0.1019	741.7 ± 0.54	–
278.15 K, x1 = 0.2002	–	1.002 ± 0.011
278.15 K, x1 = 0.2041	742.28 ± 0.54	–
278.15 K, x1 = 0.3003	–	0.924 ± 0.01
278.15 K, x1 = 0.3077	743.09 ± 0.54	–
278.15 K, x1 = 0.3999	743.94 ± 0.53	–
278.15 K, x1 = 0.4013	–	0.841 ± 0.01
278.15 K, x1 = 0.4992	–	0.765 ± 0.01
278.15 K, x1 = 0.5005	745.06 ± 0.53	–
278.15 K, x1 = 0.6005	–	0.689 ± 0.01
278.15 K, x1 = 0.6066	746.53 ± 0.53	–
278.15 K, x1 = 0.6866	747.9 ± 0.53	–
278.15 K, x1 = 0.7	–	0.615 ± 0.009
278.15 K, x1 = 0.7973	750.21 ± 0.53	–
278.15 K, x1 = 0.8005	–	0.547 ± 0.009
278.15 K, x1 = 0.8996	–	0.481 ± 0.009
278.15 K, x1 = 0.8999	752.99 ± 0.52	–
278.15 K, x1 = 1	756.14 ± 0.51	–
283.15 K, x1 = 0.1016	–	1.001 ± 0.011
283.15 K, x1 = 0.1019	737.88 ± 0.55	–
283.15 K, x1 = 0.2002	–	0.923 ± 0.01
283.15 K, x1 = 0.2041	738.38 ± 0.55	–
283.15 K, x1 = 0.3003	–	0.855 ± 0.01
283.15 K, x1 = 0.3077	739.1 ± 0.54	–
283.15 K, x1 = 0.3999	739.86 ± 0.54	–
283.15 K, x1 = 0.4013	–	0.779 ± 0.01
283.15 K, x1 = 0.4992	–	0.713 ± 0.009
283.15 K, x1 = 0.5005	740.87 ± 0.54	–
283.15 K, x1 = 0.6005	–	0.643 ± 0.009
283.15 K, x1 = 0.6066	742.2 ± 0.53	–
283.15 K, x1 = 0.6866	743.44 ± 0.53	–
283.15 K, x1 = 0.7	–	0.575 ± 0.009
283.15 K, x1 = 0.7973	745.55 ± 0.53	–
283.15 K, x1 = 0.8005	–	0.513 ± 0.009
283.15 K, x1 = 0.8996	–	0.452 ± 0.009
283.15 K, x1 = 0.8999	748.12 ± 0.53	–
283.15 K, x1 = 1	751.02 ± 0.51	–
288.15 K, x1 = 0.1016	–	0.923 ± 0.01
288.15 K, x1 = 0.1019	734.04 ± 0.55	–
288.15 K, x1 = 0.2002	–	0.856 ± 0.01
288.15 K, x1 = 0.2041	734.47 ± 0.55	–
288.15 K, x1 = 0.3003	–	0.793 ± 0.01
288.15 K, x1 = 0.3077	735.1 ± 0.55	–
288.15 K, x1 = 0.3999	735.77 ± 0.55	–
288.15 K, x1 = 0.4013	–	0.726 ± 0.01
288.15 K, x1 = 0.4992	–	0.664 ± 0.009
288.15 K, x1 = 0.5005	736.66 ± 0.54	–
288.15 K, x1 = 0.6005	–	0.601 ± 0.009
288.15 K, x1 = 0.6066	737.84 ± 0.54	–
288.15 K, x1 = 0.6866	738.97 ± 0.54	–
288.15 K, x1 = 0.7	–	0.54 ± 0.009
288.15 K, x1 = 0.7973	740.88 ± 0.54	–
288.15 K, x1 = 0.8005	–	0.481 ± 0.009
288.15 K, x1 = 0.8996	–	0.426 ± 0.009
288.15 K, x1 = 0.8999	743.23 ± 0.54	–
288.15 K, x1 = 1	745.85 ± 0.52	–
293.15 K, x1 = 0.1016	–	0.855 ± 0.01
293.15 K, x1 = 0.1019	730.2 ± 0.56	–
293.15 K, x1 = 0.2002	–	0.795 ± 0.01
293.15 K, x1 = 0.2041	730.55 ± 0.56	–
293.15 K, x1 = 0.3003	–	0.743 ± 0.009
293.15 K, x1 = 0.3077	731.09 ± 0.55	–
293.15 K, x1 = 0.3999	731.66 ± 0.55	–
293.15 K, x1 = 0.4013	–	0.678 ± 0.009
293.15 K, x1 = 0.4992	–	0.622 ± 0.009
293.15 K, x1 = 0.5005	732.44 ± 0.55	–
293.15 K, x1 = 0.6005	–	0.563 ± 0.009
293.15 K, x1 = 0.6066	733.47 ± 0.55	–
293.15 K, x1 = 0.6866	734.47 ± 0.55	–
293.15 K, x1 = 0.7	–	0.507 ± 0.009
293.15 K, x1 = 0.7973	736.17 ± 0.54	–
293.15 K, x1 = 0.8005	–	0.454 ± 0.009
293.15 K, x1 = 0.8996	–	0.402 ± 0.009
293.15 K, x1 = 0.8999	738.3 ± 0.54	–
293.15 K, x1 = 1	740.65 ± 0.53	–
298.15 K, x1 = 0.1016	–	0.797 ± 0.01
298.15 K, x1 = 0.1019	726.35 ± 0.57	–
298.15 K, x1 = 0.2002	–	0.742 ± 0.009
298.15 K, x1 = 0.2041	726.62 ± 0.56	–
298.15 K, x1 = 0.3003	–	0.692 ± 0.009
298.15 K, x1 = 0.3077	727.06 ± 0.56	–
298.15 K, x1 = 0.3999	727.53 ± 0.56	–
298.15 K, x1 = 0.4013	–	0.635 ± 0.009
298.15 K, x1 = 0.4992	–	0.584 ± 0.009
298.15 K, x1 = 0.5005	728.19 ± 0.56	–
298.15 K, x1 = 0.6005	–	0.531 ± 0.009
298.15 K, x1 = 0.6066	729.07 ± 0.55	–
298.15 K, x1 = 0.6866	729.94 ± 0.55	–
298.15 K, x1 = 0.7	–	0.479 ± 0.009
298.15 K, x1 = 0.7973	731.44 ± 0.55	–
298.15 K, x1 = 0.8005	–	0.428 ± 0.009
298.15 K, x1 = 0.8996	–	0.379 ± 0.009
298.15 K, x1 = 0.8999	733.33 ± 0.55	–
298.15 K, x1 = 1	735.4 ± 0.54	–
303.15 K, x1 = 0.1016	–	0.744 ± 0.009
303.15 K, x1 = 0.1019	722.46 ± 0.57	–
303.15 K, x1 = 0.2002	–	0.695 ± 0.009
303.15 K, x1 = 0.2041	722.68 ± 0.57	–
303.15 K, x1 = 0.3003	–	0.65 ± 0.009
303.15 K, x1 = 0.3077	723.02 ± 0.57	–
303.15 K, x1 = 0.3999	723.38 ± 0.56	–
303.15 K, x1 = 0.4013	–	0.597 ± 0.009
303.15 K, x1 = 0.4992	–	0.55 ± 0.009
303.15 K, x1 = 0.5005	723.93 ± 0.56	–
303.15 K, x1 = 0.6005	–	0.5 ± 0.009
303.15 K, x1 = 0.6066	724.65 ± 0.56	–
303.15 K, x1 = 0.6866	725.39 ± 0.56	–
303.15 K, x1 = 0.7	–	0.452 ± 0.009
303.15 K, x1 = 0.7973	726.66 ± 0.56	–
303.15 K, x1 = 0.8005	–	0.405 ± 0.009
303.15 K, x1 = 0.8996	–	0.358 ± 0.009
303.15 K, x1 = 0.8999	728.32 ± 0.55	–
303.15 K, x1 = 1	730.1 ± 0.55	–
308.15 K, x1 = 0.1016	–	0.698 ± 0.009
308.15 K, x1 = 0.1019	718.59 ± 0.58	–
308.15 K, x1 = 0.2002	–	0.653 ± 0.009
308.15 K, x1 = 0.2041	718.72 ± 0.58	–
308.15 K, x1 = 0.3003	–	0.606 ± 0.009
308.15 K, x1 = 0.3077	718.96 ± 0.57	–
308.15 K, x1 = 0.3999	719.22 ± 0.57	–
308.15 K, x1 = 0.4013	–	0.562 ± 0.009
308.15 K, x1 = 0.4992	–	0.519 ± 0.009
308.15 K, x1 = 0.6005	–	0.474 ± 0.009
308.15 K, x1 = 0.7	–	0.428 ± 0.009
308.15 K, x1 = 0.8005	–	0.382 ± 0.009
